Values joined by “and” are separate entries in the source; they are usually repeats but may differ in a detail not shown here. Identical values can stand only once.
Target: COX-1 (Homo sapiens, UniProt P23219)
Assay: biochemical

Sequence of COX-1 (P23219 24-599): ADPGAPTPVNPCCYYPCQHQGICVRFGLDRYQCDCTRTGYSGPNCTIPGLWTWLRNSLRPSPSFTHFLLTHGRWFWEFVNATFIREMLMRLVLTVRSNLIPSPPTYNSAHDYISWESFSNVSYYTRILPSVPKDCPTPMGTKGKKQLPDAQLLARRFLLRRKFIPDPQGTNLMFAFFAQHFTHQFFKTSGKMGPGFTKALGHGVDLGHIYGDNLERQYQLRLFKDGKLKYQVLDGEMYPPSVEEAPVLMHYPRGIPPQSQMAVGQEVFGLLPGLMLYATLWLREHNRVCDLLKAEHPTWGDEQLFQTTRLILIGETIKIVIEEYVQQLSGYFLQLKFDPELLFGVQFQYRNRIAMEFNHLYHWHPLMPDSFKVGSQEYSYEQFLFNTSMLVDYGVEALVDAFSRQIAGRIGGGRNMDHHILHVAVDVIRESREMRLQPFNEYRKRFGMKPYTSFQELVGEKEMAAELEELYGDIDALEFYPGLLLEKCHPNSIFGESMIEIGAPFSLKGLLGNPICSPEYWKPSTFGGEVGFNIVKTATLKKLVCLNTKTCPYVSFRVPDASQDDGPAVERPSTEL

Compound | IC50
COc1cccc(Cc2ccc3c(c2)OC(C(F)(F)F)C(C(=O)O)=C3)c1 (stereo not drawn) [Example 9w, 7-(3-methoxybenzyl)-2-(trifluoromethyl)-2H-chromene-3-carboxylic acid] | > 100 µM
Cc1ccc(Cc2cc3c(cc2Cl)C=C(C(=O)O)C(C(F)(F)F)O3)cc1 (stereo not drawn) [Example 9x, 6-chloro-7-(4-methylbenzyl)-2-(trifluoromethyl)-2H-chromene-3-carboxylic acid] | 5.59 µM and 10.3 µM
Cc1ccc(Cc2cc3c(cc2Cl)C=C(C(=O)O)C(C(F)(F)F)O3)cc1Cl (stereo not drawn) [Example 9y, 6-chloro-7-(3-chloro-4-methylbenzyl)-2-(trifluoromethyl)-2H-chromene-3-carboxylic acid] | 4.69 µM
O=C(O)C1=Cc2cc(Cl)c(Cc3ccc(F)c(F)c3)cc2OC1C(F)(F)F (stereo not drawn) [Example 9z, 6-chloro-7-(3,4-difluorobenzyl)-2-(trifluoromethyl)-2H-chromene-3-carboxylic acid] | 27.4 µM
O=C(O)C1=Cc2cc(Cl)c(C(=O)c3ccccc3)cc2OC1C(F)(F)F (stereo not drawn) [Example 10, 7-benzoyl-6-chloro-2-(trifluoromethyl)-2H-chromene-3-carboxylic acid] | < 0.137 µM
O=C(O)C1=Cc2ccc(C(=O)c3cccnc3)cc2OC1C(F)(F)F (stereo not drawn) [Example 11, 7-(pyridin-3-ylcarbonyl)-2-(trifluoromethyl)-2H-chromene-3-carboxylic acid] | > 100 µM
O=C(O)C1=Cc2ccc(-c3ccco3)cc2OC1C(F)(F)F (stereo not drawn) [Example 12, 7-(2-furyl)-2-(trifluoromethyl)-2H-chromene-3-carboxylic acid] | > 100 µM
O=C(O)C1=Cc2c(cc(Cc3ccccc3)c(Cl)c2Cl)OC1C(F)(F)F (stereo not drawn) [Example 13, 7-benzyl-5,6-dichloro-2-(trifluoromethyl)-2H-chromene-3-carboxylic acid] | 4.18 µM and 2.79 µM
Cc1c(Cc2ccccc2)c(Cl)cc2c1OC(C(F)(F)F)C(C(=O)O)=C2 (stereo not drawn) [Example 14a, 7-benzyl-6-chloro-8-methyl-2-(trifluoromethyl)-2H-chromene-3-carboxylic acid] | < 0.137 µM
Cc1c(Cc2ccccc2)ccc2c1OC(C(F)(F)F)C(C(=O)O)=C2 (stereo not drawn) [Example 14b, 7-benzyl-8-methyl-2-(trifluoromethyl)-2H-chromene-3-carboxylic acid] | < 0.137 µM
CCCC(=O)NCc1cc2c(cc1Cl)C=C(C(=O)O)C(C(F)(F)F)O2 (stereo not drawn) [Example 16, 7-[(butyrylamino)methyl]-6-chloro-2-(trifluoromethyl)-2H-chromene-3-carboxylic acid] | > 100 µM
O=C(O)C1=Cc2cc(O)cc(Cl)c2OC1C(F)(F)F (stereo not drawn) [Example 17b, 8-chloro-6-hydroxy-2-(trifluoromethyl)-2H-chromene-3-carboxylic acid] | > 100 µM and 455 µM
O=C(O)C1=Cc2cc(OCC(F)(F)F)cc(Cl)c2OC1C(F)(F)F (stereo not drawn) [Example 17c, 8-chloro-6-(2,2,2-trifluoroethoxy)-2-(trifluoromethyl)-2H-chromene-3-carboxylic acid] | 3.58 µM and 0.623 µM
O=C(O)C1=Cc2cc(OCc3ccccc3)cc(Cl)c2OC1C(F)(F)F (stereo not drawn) [Example 17d, 6-(benzyloxy)-8-chloro-2-(trifluoromethyl)-2H-chromene-3-carboxylic acid] | 0.365 µM and < 0.137 µM
CCCCCCOc1cc(Cl)c2c(c1)C=C(C(=O)O)C(C(F)(F)F)O2 (stereo not drawn) [Example 17e, 8-chloro-6-(hexyloxy)-2-(trifluoromethyl)-2H-chromene-3-carboxylic acid] | < 0.137 µM
CCCOc1cc(Cl)c2c(c1)C=C(C(=O)O)C(C(F)(F)F)O2 (stereo not drawn) [Example 17f, 8-chloro-6-propoxy-2-(trifluoromethyl)-2H-chromene-3-carboxylic acid] | 11.8 µM
O=C(O)C1=Cc2cc(OC3CCCCC3)cc(Cl)c2OC1C(F)(F)F (stereo not drawn) [Example 17g, 8-chloro-6-(cyclohexyloxy)-2-(trifluoromethyl)-2H-chromene-3-carboxylic acid] | 0.5 µM and 0.392 µM
COc1cc(Cl)c2c(c1Cl)C=C(C(=O)O)C(C(F)(F)F)O2 (stereo not drawn) [Example 18a, 5,8-dichloro-6-methoxy-2-(trifluoromethyl)-2H-chromene-3-carboxylic acid] | < 0.137 µM
COc1cc2c(c(Cl)c1Cl)OC(C(F)(F)F)C(C(=O)O)=C2 (stereo not drawn) [Example 19, 7,8-dichloro-6-methoxy-2-(trifluoromethyl)-2H-chromene-3-carboxylic acid] | 82.1 µM and 34.7 µM
COc1c(Cl)c(Cl)c2c(c1Cl)C=C(C(=O)O)C(C(F)(F)F)O2 (stereo not drawn) [Example 20a, 5,7,8-trichloro-6-methoxy-2-(trifluoromethyl)-2H-chromene-3-carboxylic acid] | < 0.137 µM
O=C(O)C1=Cc2cc(OC(F)(F)F)cc(C#Cc3ccccc3)c2OC1C(F)(F)F (stereo not drawn) [Example 21c, 8-(phenylethynyl)-6-(trifluoromethoxy)-2-(trifluoromethyl)-2H-chromene-3-carboxylic acid] | 19.2 µM and 9.68 µM
CC#Cc1cc(OC(F)(F)F)cc2c1OC(C(F)(F)F)C(C(=O)O)=C2 (stereo not drawn) [Example 21d, 8-prop-1-ynyl-6-(trifluoromethoxy)-2-(trifluoromethyl)-2H-chromene-3-carboxylic acid] | 0.182 µM
CCCC#Cc1cc(OC(F)(F)F)cc2c1OC(C(F)(F)F)C(C(=O)O)=C2 (stereo not drawn) [Example 21e, 8-pent-1-ynyl-6-(trifluoromethoxy)-2-(trifluoromethyl)-2H-chromene-3-carboxylic acid] | 6.52 µM and 3.06 µM

Compound | IC50
C#Cc1cc(OC(F)(F)F)cc2c1OC(C(F)(F)F)C(C(=O)O)=C2 (stereo not drawn) [Example 21f, 8-ethynyl-6-(trifluoromethoxy)-2-(trifluoromethyl)-2H-chromene-3-carboxylic acid] | < 0.137 µM and 0.0312 µM
CCc1cc(OC(F)(F)F)cc2c1OC(C(F)(F)F)C(C(=O)O)=C2 (stereo not drawn) [Example 21g, 8-ethyl-6-(trifluoromethoxy)-2-(trifluoromethyl)-2H-chromene-3-carboxylic acid] | 24.4 µM and 21.6 µM and 9.14 µM and 10.7 µM
CC(C)Cc1cc(OC(F)(F)F)cc2c1OC(C(F)(F)F)C(C(=O)O)=C2 (stereo not drawn) [Example 21h, 8-isobutyl-6-(trifluoromethoxy)-2-(trifluoromethyl)-2H-chromene-3-carboxylic acid] | > 100 µM and 217 µM
CCCCCc1cc(OC(F)(F)F)cc2c1OC(C(F)(F)F)C(C(=O)O)=C2 (stereo not drawn) [Example 21j, 8-pentyl-6-(trifluoromethoxy)-2-(trifluoromethyl)-2H-chromene-3-carboxylic acid] | 40.4 µM
C=Cc1cc(OC(F)(F)F)cc2c1OC(C(F)(F)F)C(C(=O)O)=C2 (stereo not drawn) [Example 21n, 6-(trifluoromethoxy)-2-(trifluoromethyl)-8-vinyl-2H-chromene-3-carboxylic acid] | < 0.137 µM
O=C(O)C1=Cc2cc(OC(F)(F)F)cc(CCc3ccccc3)c2OC1C(F)(F)F (stereo not drawn) [Example 21o, 8-(2-phenylethyl)-6-(trifluoromethoxy)-2-(trifluoromethyl)-2H-chromene-3-carboxylic acid] | 54.8 µM and 68.2 µM
N#Cc1cc(OC(F)(F)F)cc2c1OC(C(F)(F)F)C(C(=O)O)=C2 (stereo not drawn) [Example 21p, 8-cyano-6-(trifluoromethoxy)-2-(trifluoromethyl)-2H-chromene-3-carboxylic acid] | 39.2 µM
CCC#Cc1cc(OC(F)(F)F)cc2c1OC(C(F)(F)F)C(C(=O)O)=C2 (stereo not drawn) [Example 21q, 8-but-1-ynyl-6-(trifluoromethoxy)-2-(trifluoromethyl)-2H-chromene-3-carboxylic acid] | 5.71 µM
CCCCc1cc(OC(F)(F)F)cc2c1OC(C(F)(F)F)C(C(=O)O)=C2 (stereo not drawn) [Example 21r, 8-butyl-6-(trifluoromethoxy)-2-(trifluoromethyl)-2H-chromene-3-carboxylic acid] | 83.8 µM
C=CCc1cc(OC(F)(F)F)cc2c1OC(C(F)(F)F)C(C(=O)O)=C2 (stereo not drawn) [Example 21s, 8-allyl-6-(trifluoromethoxy)-2-(trifluoromethyl)-2H-chromene-3-carboxylic acid] | > 100 µM and 119 µM
O=C(O)C1=Cc2cc(Cl)c(I)c(Cl)c2OC1C(F)(F)F (stereo not drawn) [Example 22, 6,8-dichloro-7-iodo-2-(trifluoromethyl)-2H-chromene-3-carboxylic acid] | > 1 µM and 25.6 µM and 12.4 µM
CCCOc1ccc(Cl)c2c1OC(C(F)(F)F)C(C(=O)O)=C2 (stereo not drawn) [Example 23a, 5-chloro-8-propoxy-2-(trifluoromethyl)-2H-chromene-3-carboxylic acid] | > 500 µM
CCC(CC)COc1ccc(Cl)c2c1OC(C(F)(F)F)C(C(=O)O)=C2 (stereo not drawn) [Example 23b, 5-chloro-8-(2-ethylbutoxy)-2-(trifluoromethyl)-2H-chromene-3-carboxylic acid] | 159 µM and > 100 µM
O=C(O)C1=Cc2c(Cl)ccc(OCc3ccccc3)c2OC1C(F)(F)F (stereo not drawn) [Example 23c, 8-(benzyloxy)-5-chloro-2-(trifluoromethyl)-2H-chromene-3-carboxylic acid] | 48.4 µM and 62.6 µM
COc1ccc(Cl)c2c1OC(C(F)(F)F)C(C(=O)O)=C2 (stereo not drawn) [Example 23d, 5-chloro-8-methoxy-2-(trifluoromethyl)-2H-chromene-3-carboxylic acid] | > 500 µM
COc1cc(Cl)c(Cl)c2c1OC(C(F)(F)F)C(C(=O)O)=C2 (stereo not drawn) [Example 23e, 5,6-dichloro-8-methoxy-2-(trifluoromethyl)-2H-chromene-3-carboxylic acid] | 0.471 µM and < 0.132 µM
COc1ccc(Br)c2c1OC(C(F)(F)F)C(C(=O)O)=C2 (stereo not drawn) [Example 24a, 5-bromo-8-methoxy-2-(trifluoromethyl)-2H-chromene-3-carboxylic acid] | > 500 µM
CCOc1ccc(Br)c2c1OC(C(F)(F)F)C(C(=O)O)=C2 (stereo not drawn) [Example 24b, 5-bromo-8-ethoxy-2-(trifluoromethyl)-2H-chromene-3-carboxylic acid] | > 500 µM
O=C(O)C1=Cc2cccc(Oc3ccc([N+](=O)[O-])cc3F)c2OC1C(F)(F)F (stereo not drawn) [Example 25a, 8-(2-fluoro-4-nitrophenoxy)-2-(trifluoromethyl)-2H-chromene-3-carboxylic acid] | > 500 µM
Nc1ccc(Oc2cccc3c2OC(C(F)(F)F)C(C(=O)O)=C3)c(F)c1 (stereo not drawn) [Example 25b, 8-(4-amino-2-fluorophenoxy)-2-(trifluoromethyl)-2H-chromene-3-carboxylic acid] | < 0.686 µM and < 0.137 µM and 0.14 µM
CCCOc1cccc2c1OC(C(F)(F)F)C(C(=O)O)=C2 (stereo not drawn) [Example 25e, 8-propoxy-2-(trifluoromethyl)-2H-chromene-3-carboxylic acid] | > 100 µM
CCCCOc1cccc2c1OC(C(F)(F)F)C(C(=O)O)=C2 (stereo not drawn) [Example 25f, 8-butoxy-2-(trifluoromethyl)-2H-chromene-3-carboxylic acid] | > 100 µM
